Source: patent US11135209B2, “Compositions and methods for inhibiting protein kinases” (UNIVERSITY OF HOUSTON SYSTEM, priority 2017, dated 2021)

Key:
[1] = biological target: Recombinant RIPK2 protein (Homo sapiens, UniProt O43353); assay: Receptor Interacting Protein Kinase 2 (RIPK2) enzyme assay (ADP-Glo); type: biochemical; conditions: for inhibition at 0.5 µM: Conc. 500 nM
Description: Receptor Interacting Protein Kinase 2 (RIPK2) Enzyme Assay
Recombinant RIPK2 protein (20 ng per reaction) is diluted in the reaction buffer consisting of 40 mM Tris (pH 7.5); 20 mM MgCl2; 0.1 mg/ml BSA; 50 μM DTT. Diluted protein is added to low volume white 384 well plates (2 μL/well). Inhibitors are diluted in reaction buffer (final 25% DMSO), 1 μL is added to each well and incubated 5 min at room temperature. Reactions are initiated by the addition of 2 μL of 100 μM ATP and 1 mg/ml RS repeat peptide (SignalChem) in the reaction buffer. Plates are sealed with plastic coverslips and incubated at room temperature for 2 h. Reactions are stopped by the addition of 5 μL of ADP-Glo reagent (Promega) and ADP generation reaction is performed for 40 min at room temperature. Luminescence signal is generated by the addition of 10 μL of Kinase detection reagent (Promega) for 30 min at room temperature Luminescence signals are determined using appropriate luminescence plate-reader (typical integration time 0.3-1 sec). To calculate percent inhibition, average background signal is subtracted from test well and maximal signal wells. Inhibition, %=(1−(test signal/maximal signal))*100. The percent inhibition at a specified concentration is determined or IC50 values are calculated based on a dose range of inhibitor concentrations using non-linear regression in GraphPad Prism software.

[2] = system: NOD2 cellular signaling in HEK-Blue cells expressing human NOD2; assay: NOD2 cell signaling assay (HEK-Blue, NFkB-SEAP reporter, L18-MDP stimulated); type: cell-based; conditions: read-out: IC50 (nM) HEKBlue RIPK2
Description: NOD2 Cell Signaling Assay.
HEK-Blue cells expressing human NOD2 and NFkB-SAEP reporter (Invivogen) are seeded into 96 well clear plates at 7.5×10^3 cells per well in 100 μL of DMEM media supplemented with 10% FBS and 1% antibiotic-antimycotic mix. Cells are allowed to attach for 48 h in 5% CO2 tissue culture incubator at 37° C. On the morning of the experiment, media in the wells is replaced with 100 pt of HEK-Blue detection media (Invivogen). Cells are treated with the inhibitors, diluted in DMSO (0.5 μL per well) for 15 min in 5% CO2 tissue culture incubator at 37° C. After that, cells are stimulated by the addition of 1 ng/well L18-MDP (Invivogen). Cells are incubated in 5% CO2 tissue culture incubator at 37° C. for 8 h and absorbance, corresponding to the SEAP in the media, is determined in Wallac3V plate reader (Perkin Elmer). Inhibition, %=(1−((sample signal-unstimulated and DMSO treated cells)/(L18-MDP stimulated and DMSO treated cells−unstimulated and DMSO treated cells)))*100. IC50 values are calculated based on a dose range of inhibitor concentrations using non-linear regression in GraphPad Prism software.

human ALK2 = biological target: T1, human ALK2 (Homo sapiens, UniProt Q04771); assay: Activin-Like Kinase 2 (ALK2) enzyme assay; type: biochemical
T1 sequence (Q04771 21-509): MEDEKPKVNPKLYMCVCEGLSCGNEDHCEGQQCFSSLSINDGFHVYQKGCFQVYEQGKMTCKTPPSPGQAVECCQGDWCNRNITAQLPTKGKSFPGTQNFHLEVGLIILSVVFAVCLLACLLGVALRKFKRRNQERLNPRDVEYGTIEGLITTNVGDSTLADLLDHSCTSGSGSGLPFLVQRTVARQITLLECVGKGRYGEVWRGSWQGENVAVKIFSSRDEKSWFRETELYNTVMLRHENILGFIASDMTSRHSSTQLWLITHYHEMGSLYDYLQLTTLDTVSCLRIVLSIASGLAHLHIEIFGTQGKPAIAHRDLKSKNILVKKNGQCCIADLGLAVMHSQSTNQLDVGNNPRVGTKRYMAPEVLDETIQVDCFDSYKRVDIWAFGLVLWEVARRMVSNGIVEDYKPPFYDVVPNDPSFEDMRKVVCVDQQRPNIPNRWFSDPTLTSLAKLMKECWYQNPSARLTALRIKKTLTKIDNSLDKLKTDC
Description: Activin-Like Kinase 2 (ALK2) Enzyme Assay
Enzyme inhibitory activity was evaluated in a standard kinase enzyme assay by incubating human ALK2 with the protein substrate casein (1 mg/mL) and γ-^33ATP (10 μM) in the presence of various concentrations of test compounds (10 nM-100 μM). After 30 min the amount of ^33P-casein was determined.

Recombinant RIPK2 protein, sequence (O43353 whole entry, species assumed): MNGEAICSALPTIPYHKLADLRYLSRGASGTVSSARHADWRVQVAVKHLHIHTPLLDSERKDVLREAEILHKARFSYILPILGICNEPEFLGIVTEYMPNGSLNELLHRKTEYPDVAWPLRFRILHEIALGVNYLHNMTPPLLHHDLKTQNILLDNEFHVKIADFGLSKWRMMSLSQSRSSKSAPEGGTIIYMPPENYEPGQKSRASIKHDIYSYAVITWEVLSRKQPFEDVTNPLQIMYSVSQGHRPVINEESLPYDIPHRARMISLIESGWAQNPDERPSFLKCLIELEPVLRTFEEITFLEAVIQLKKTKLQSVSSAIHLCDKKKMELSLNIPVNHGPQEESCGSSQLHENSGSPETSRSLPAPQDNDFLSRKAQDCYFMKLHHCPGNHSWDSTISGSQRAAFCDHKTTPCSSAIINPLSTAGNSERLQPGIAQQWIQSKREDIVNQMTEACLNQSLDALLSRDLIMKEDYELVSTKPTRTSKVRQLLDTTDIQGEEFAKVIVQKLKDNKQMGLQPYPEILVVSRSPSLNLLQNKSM

## COc1cc(-c2cc(-c3ccc(N4CCNCC4)cc3)cnc2N)cc(NS(=O)(=O)c2ccccc2)c1C [CSLP51, N-(5-(2-Amino-5-(4-(piperazin-1-yl)phenyl)pyridin-3-yl)-3-methoxy-2-methylphenyl)benzenesulfonamide]
[1]
  IC50: > 1000 nM
[2]
  IC50: > 1000 nM
Human ALK2
  IC50: > 1000 nM

## CCCS(=O)(=O)Nc1cc(-c2cc(-c3ccc(N4CCNCC4)cc3)cnc2N)cc(OC)c1OC [CSLP43, N-(5-(2-Amino-5-(4-(piperazin-1-yl)phenyl)pyridin-3-yl)-2,3-dimethoxyphenyl)propane-1-sulfonamide]
[1]
  IC50: > 10 nM
[2]
  IC50: > 1 nM
Human ALK2
  IC50: > 10 nM

## CCS(=O)(=O)Nc1cc(OC)cc(-c2cc(-c3ccc(N4CCNCC4)cc3)cnc2Cl)c1 [CSLP14]
[1]
  IC50: > 100 nM
  inhibition at 0.5 µM: 86%
[2]
  IC50: > 1000 nM
Human ALK2
  IC50: > 10 nM

## CCS(=O)(=O)Nc1cc(OC)cc(-c2cc(-c3ccc(N4CCNCC4)cc3)cnc2N)c1 [CSLP7]
[1]
  IC50: > 10 nM
[2]
  IC50: > 100 nM

## COc1cc(NS(=O)(=O)Cc2ccccc2)cc(-c2cc(-c3ccc(N4CCNCC4)cc3)cnc2N)c1 [CSLP24, N-(3-(2-Amino-5-(4-(piperazin-1-yl)phenyl)pyridin-3-yl)-5-methoxyphenyl)-1-phenylmethanesulfonamide]
[1]
  IC50: > 100 nM
[2]
  IC50: > 100 nM
Human ALK2
  IC50: > 1 nM

## CCCS(=O)(=O)N1CCOc2ccc(-c3cc(-c4ccc(N5CCNCC5)cc4)cnc3N)cc21 [CSLP47, 5-(4-(Piperazin-1-yl)phenyl)-3-(4-(propylsulfonyl)-3,4-dihydro-2H-benzo[b][1,4]oxazin-6-yl)pyridin-2-amine]
[1]
  IC50: > 10 nM
[2]
  IC50: > 1000 nM
Human ALK2
  IC50: > 100000 nM

## COc1cc(-c2cc(-c3ccc(N4CCNCC4)cc3)cnc2N)cc(NS(C)(=O)=O)c1C [CSLP21, N-(5-(2-Amino-5-(4-(piperazin-1-yl)phenyl)pyridin-3-yl)-3-methoxy-2-methylphenyl)methanesulfonamide]
[1]
  IC50: > 1000 nM
[2]
  IC50: > 1000 nM
Human ALK2
  IC50: > 100 nM

## CCCS(=O)(=O)Nc1cc(-c2cc(-c3ccc(N4CCNCC4)cc3)cnc2N)cc(Cl)c1OC [CSLP35]
[1]
  IC50: > 10 nM
[2]
  IC50: > 10 nM
Human ALK2
  IC50: > 100 nM

## CCCS(=O)(=O)Nc1cc(-c2cc(-c3cccc(N4CCNCC4)c3)cnc2N)cc(F)c1OC [CSLP58, N-(5-(2-Amino-5-(3-(piperazin-1-yl)phenyl)pyridin-3-yl)-3-fluoro-2-methoxyphenyl)propane-1-sulfonamide]
[1]
  IC50: > 10 nM
[2]
  IC50: > 10 nM
Human ALK2
  IC50: > 100 nM

## CCCS(=O)(=O)Nc1cc(-c2cc(-c3ccc(N4CCNCC4)cc3)cnc2C)cc(F)c1OC [CSLP53, N-(3-Fluoro-2-methoxy-5-(2-methyl-5-(4-(piperazin-1-yl)phenyl)pyridin-3-yl)phenyl)propane-1-sulfonamide]
[1]
  IC50: > 1000 nM
[2]
  IC50: > 1000 nM
Human ALK2
  IC50: > 100000 nM

## COc1cc(NS(=O)(=O)C(C)C)cc(-c2cc(-c3ccc(N4CCNCC4)cc3)cnc2N)c1 [CSLP8]
[1]
  IC50: > 10 nM
[2]
  IC50: > 100 nM
Human ALK2
  IC50: > 1 nM

## CCCS(=O)(=O)Nc1cc(-c2cc(-c3ccc(N4CCNCC4)cc3)cnc2N)cc(F)c1OC [CSLP37, N-(5-(2-Amino-5-(4-(piperazin-1-yl)phenyl)pyridin-3-yl)-3-fluoro-2-methoxyphenyl)propane-1-sulfonamide]
[1]
  IC50: > 10 nM
[2]
  IC50: > 10 nM
Human ALK2
  IC50: > 100 nM

## CCCS(=O)(=O)Nc1cc(-c2cc(-c3ccc(N4CCNCC4)cc3)cnc2N)cc2c1OCCO2 [CSLP52, N-(7-(2-Amino-5-(4-(piperazin-1-yl)phenyl)pyridin-3-yl)-2,3-dihydrobenzo[b][1,4]dioxin-5-yl)propane-1-sulfonamide]
[1]
  IC50: > 100 nM
[2]
  IC50: > 1000 nM
Human ALK2
  IC50: > 100000 nM

## COc1cc(NS(C)(=O)=O)cc(-c2cc(-c3ccc(N4CCNCC4)cc3)cnc2N)c1 [CSLP3]
[1]
  IC50: > 10 nM
[2]
  IC50: > 100 nM
Human ALK2
  IC50: > 1 nM

## CCCS(=O)(=O)Nc1cc(OC)cc(-c2cc(-c3cccc(S(C)(=O)=O)c3)cnc2N)c1 [CSLP44, N-(3-(2-Amino-5-(3-(methylsulfonyl)phenyl)pyridin-3-yl)-5-methoxyphenyl)propane-1-sulfonamide]
[1]
  IC50: > 10 nM
[2]
  IC50: > 1000 nM
Human ALK2
  IC50: > 100 nM

## CCCS(=O)(=O)Nc1cc(-c2cc(-c3ccc(N4CCNCC4)cc3)cnc2N)cc(Cl)c1C [CSLP40, N-(5-(2-Amino-5-(4-(piperazin-1-yl)phenyl)pyridin-3-yl)-3-chloro-2-methylphenyl)propane-1-sulfonamide]
[1]
  IC50: > 100 nM
[2]
  IC50: > 1000 nM
Human ALK2
  IC50: > 100 nM

## COc1cc(NS(=O)(=O)C2CC2)cc(-c2cc(-c3ccc(N4CCNCC4)cc3)cnc2C)c1 [CSLP9, N-(3-Methoxy-5-(2-methyl-5-(4-(piperazin-1-yl)phenyl)pyridin-3-yl)phenyl)cyclopropanesulfonamide]
[1]
  inhibition at 0.5 µM: 76%
[2]
  IC50: > 1000 nM

## CCCS(=O)(=O)Nc1cc(OC)cc(-c2cc(-c3ccc(N4CCNCC4)cc3)cnc2N)c1 [CSLP6]
[1]
  IC50: > 10 nM
[2]
  IC50: > 100 nM
Human ALK2
  IC50: > 1 nM

## COc1ccc(-c2cc(-c3ccc(N4CCNCC4)cc3)cnc2N)cc1NS(=O)(=O)C(C)C [CSLP28, N-(5-(2-Amino-5-(4-(piperazin-1-yl)phenyl)pyridin-3-yl)-2-methoxyphenyl)propane-2-sulfonamide]
[1]
  IC50: > 10 nM
[2]
  IC50: > 100 nM
Human ALK2
  IC50: > 1000 nM

## CCCS(=O)(=O)Nc1cc(-c2cc(-c3ccc(N4CCNCC4)cc3)cnc2N)cc(OC)c1C [CSLP19, N-(5-(2-Amino-5-(4-(piperazin-1-yl)phenyl)pyridin-3-yl)-3-methoxy-2-methylphenyl)propane-1-sulfonamide]
[1]
  IC50: > 1000 nM
[2]
  IC50: > 1000 nM
Human ALK2
  IC50: > 100 nM

## COc1cc(NS(=O)(=O)C(C)C)cc(-c2cc(-c3ccc(N4CCNCC4)cc3)cnc2C)c1 [CSLP16, N-(3-Methoxy-5-(2-methyl-5-(4-(piperazin-1-yl)phenyl)pyridin-3-yl)phenyl)propane-2-sulfonamide]
[1]
  IC50: > 10 nM
  inhibition at 0.5 µM: 85%
[2]
  IC50: > 100 nM
Human ALK2
  IC50: > 100 nM

## CCCS(=O)(=O)Nc1cc(F)cc(-c2cc(-c3ccc(N4CCNCC4)cc3)cnc2N)c1 [CSLP38, N-(3-(2-Amino-5-(4-(piperazin-1-yl)phenyl)pyridin-3-yl)-5-fluorophenyl)propane-1-sulfonamide]
[1]
  IC50: > 10 nM
[2]
  IC50: > 100 nM
Human ALK2
  IC50: > 10 nM

## CCCS(=O)(=O)NCc1cc(-c2cc(-c3ccc(N4CCNCC4)cc3)cnc2N)ccc1OC [CSLP36, N-(5-(2-Amino-5-(4-(piperazin-1-yl)phenyl)pyridin-3-yl)-2-methoxybenzyl)propane-1-sulfonamide]
[1]
  IC50: > 100 nM
[2]
  IC50: > 1000 nM
Human ALK2
  IC50: > 100 nM

## CCCS(=O)(=O)Nc1cc(-c2cc(-c3ccc(N4CCNCC4)cc3)cnc2N)cc(C)c1C [CSLP45, N-(5-(2-Amino-5-(4-(piperazin-1-yl)phenyl)pyridin-3-yl)-2,3-dimethylphenyl)propane-1-sulfonamide]
[1]
  IC50: > 100 nM
[2]
  IC50: > 100 nM
Human ALK2
  IC50: > 100 nM

## COc1cc(NS(=O)(=O)C2CC2)cc(-c2cc(-c3ccc(N4CCNCC4)cc3)cnc2N)c1 [CSLP11, N-(3-(2-Amino-5-(4-(piperazin-1-yl)phenyl)pyridin-3-yl)-5-methoxyphenyl)cyclopropanesulfonamide]
[1]
  IC50: > 10 nM
[2]
  IC50: > 100 nM
